# “Also recorded” adds a separate entry of the source.
# How the values were obtained:
# claudin-5 = assay: Western blot analysis of claudin-5 expression in brain after hydrodynamic tail vein delivery of siRNA; type: in vivo, C57/Bl6 mice
# Experimental: Rapid high pressure, high volume tail vein injections were carried out (Kiang et al., 2005). Wild type C57/Bl6 mice of weight 20-30 g were individually restrained inside a 60-ml volume plastic tube. The protruding tail was warmed for 5 minutes prior to injection under a 60-W lamp and the tail vein clearly visualized by illumination from below. 20 micrograms of targeting siRNA, or non-targeting siRNA made up with PBS to a volume in mls of 10% of the body weight in grams or PBS alone, was injected into the tail vein at a rate of 1 ml/sec using a 26-gauge (26 G 3/8) needle. After 24, 48, 72 hours and 1 week, protein was isolated from total brain tissue by crushing brains to a fine powder in liquid N2 and subsequently using lysis buffer containing 62.5 mM Tris, 2% SDS, 10 mM Dithiothreitol, 10 μl protease inhibitor cocktail/100 ml (Sigma Aldrich, Ireland). The homogenate was centrifuged at 10,000 g for 20 mins @4° C., and the supernatant was removed for claudin-5 analysis.
# Briefly, protein samples were separated on 12% SDS-PAGE gels and transferred to nitrocellulose membrane overnight using a wet electroblot apparatus. Efficiency of protein transfer was determined using Ponceau-S solution (Sigma Aldrich, Ireland). Non-specific binding sites were blocked by incubating the membrane at room temperature with 5% non-fat dry skimmed milk in Tris-buffered saline (TBS) (0.05 M Tris, 150 mM NaCl, pH 7.5) for 2 hours. Membranes were briefly washed with TBS, and incubated with polyclonal rabbit anti-claudin-5 (Zymed Laboratories, San Francisco, Calif.) (1:500) or polyclonal rabbit anti-β-actin (Abcam, Cambridge, UK) (1:1000). Antibodies were incubated with membranes overnight at 4° C. Membranes were washed with TBS, and incubated with a secondary anti-rabbit (IgG) antibody with Horse-Radish-Peroxidase (HRP) conjugates (1:2500), for 3 hours at room temperature. Immune complexes were detected using enhanced chemiluminescence (ECL).
# iBRB = assay: MRI analysis of Gd-DTPA diffusion across the iBRB (eye); type: in vivo, mice; details: 48 hours post-injection
# BBB [1] = assay: BBB permeability to Hoechst H33342 (562 Da) and FD-4 (4,400 Da) co-perfusion, brain sections; type: in vivo, C57/Bl6 mice; details: for extravasation of FD-4 (4,400 Da) into brain parenchyma: any time point following siRNA injection
# Experimental: In order to determine the permeability of brain and retinal microvessels to a molecule of 562 Daltons, mice were perfused through the left ventricle with 500 μl/g body weight of PBS containing 100 μg/ml Hoechst stain H33342 (Sigma Aldrich, Ireland) and 1 mg/ml FITC-Dextran-4 (FD-4) 24, 48, 72 hours and 1 week post-hydrodynamic delivery of claudin-5 siRNA. Following perfusion, the whole brain was dissected and placed in 4% PFA pH 7.4 overnight at 4° C. and subsequently washed 4×15 mins with PBS. Brains were then embedded in 4% agarose and 50 μm sections were cut using a Vibratome®. Whole eyes were removed and fixed with 4% PFA, and following washing with PBS and cryoprotection using a sucrose gradient, 12 μm cryosections were cut using a cryostat. Following analysis of retinal cryosections with an Olympus FluoView™ FV1000 Confocal microscope, images were oriented correctly using Adobe® Photoshop®.
# BBB [2] = assay: Assessment of BBB integrity by perfusion of biotinylated tracer EZ-Link Sulfo-NHS-Biotin (443 Da); type: in vivo, C57/Bl6 mice
# Experimental: Following RNAi-mediated ablation of transcripts encoding claudin-5, a tracer molecule was used to determine the extent to which the TJ's of the BBB had been affected. The biotinylated reagent EZ-Link™ Sulfo-NHS-Biotin (Pierce) (1 ml/g body weight of 2 mg/ml EZ-Link™ Sulfo-NHS-Biotin, 443 Da) was perfused for 5 minutes through the left ventricle of mice 24, 48, 72 hours and 1 week post-hydrodynamic delivery of claudin-5 siRNA. Following perfusion with the tracer molecule, the whole brain was dissected and placed in 4% PFA pH 7.4 overnight at 4° C. and subsequently washed 4×15 mins with PBS. Following cryoprotection with sucrose, frozen sections were cut on a cryostat at −20° C. and incubated with streptavidin conjugated to the fluorescent probe FITC. This allowed for the assessment of leakage of the biotinylated reagent of molecular weight 443 Da from the microvessels of the brain. All sections were counterstained with 4′,6-diamidine-2-phenylindole-dihydrochloride (DAPI; Sigma Aldrich, Ireland) for 30 seconds at a dilution of 1:5000 of a stock 1 mg/ml solution, and sections were visualized using an Olympus FluoView™ FV1000 Confocal microscope.
# [3] = MRI blood flow/volume (mean transit time, capillary transit time) in brain after claudin-5 siRNA; type: in vivo, mice; details: 24 and 48 hours post-high volume tail vein injection; up to 8 animals per group
# Experimental: 48 hours post-delivery of siRNA targeting claudin-5 or a non-targeting siRNA, a solution containing Gd-DTPA injected to the claudin-5 suppressed mice. Gd-DTPA was injected in the tail vein to assess whether Gd-TPA would permeate across the BBB. Following injection of siRNA and using appropriate controls, BBB integrity to a molecule of 742 Daltons (Gd-DTPA) was assessed via MRI, using a dedicated small rodent Bruker BioSpec 70/30 (i.e. 7 T, 30 cm bore) with an actively shielded USR Magnet. Mice were anaesthetised with isofluorane, and physiologically monitored (ECG, respiration and temperature) and placed on an MRI-compatible support cradle, which has a built-in system for maintaining the animal's body temperature at 37° C. The cradle was then positioned within the MRI scanner. Accurate positioning is ensured by acquiring an initial rapid pilot image, which is then used to ensure the correct geometry is scanned in all subsequent MRI experiments. […] Statistical analysis of all densitometric results of combined regions of the Cerebellum, Hippocampus and Cortex was performed using ANOVA, with significance represented by a P value of ≦0.05, and results are presented both graphically and in a quantitative image depicting the rate of Gd-DTPA deposition within the brain. […]
# This is calculated from the first moment or mean of the curve. […]
# [4] = listed as siRNA targeting claudin-5
substance,measurement,setting,value
"claudin-5 siRNA: siRNA, sense CGUUGGAAAUUCUGGGUCUUU (SEQ ID NO: 1), antisense AGACCCAGAAUUUCCAACGUU (SEQ ID NO: 2) (listed as RNA, chemistry not given here)","claudin-5 expression, Western blot, brain","claudin-5; 24 hours post delivery of 20 μg siRNA, vs un-injected, PBS and non-targeting siRNA controls",decrease in expression; also recorded: markedly decreased
same,"claudin-5 expression, Western blot, brain","claudin-5; 48 hours post delivery of 20 μg siRNA, vs controls",suppression was also evident
same,"claudin-5 expression, Western blot, brain","claudin-5; 48 hours post delivery of 20 μg siRNA, vs controls, listed as CLDN5 siRNA",significant decreases in Claudin-5 expression
same,"claudin-5 expression, Western blot, brain","claudin-5; 48 hours post delivery of 20 μg siRNA, vs controls, listed as siRNA targeting claudin-5",maximum suppression
same,"claudin-5 expression, Western blot, brain","claudin-5; 72 hours post delivery of 20 μg siRNA, vs controls, listed as CLDN5 siRNA",levels of expression appeared similar to those observed in the control groups
same,"time at which claudin-5 expression returns to normal, Western data",claudin-5; after injection,returning to normal between 72 hours and 1 week
same,"Gd-DTPA contrasting in the eye / iBRB integrity, MRI",iBRB,Strong contrasting
same,"Gd-DTPA contrasting in the eye / iBRB integrity, MRI",iBRB; [4],iBRB was compromised
same,extravasation of Hoechst H33342 (562 Da) from brain microvessels,BBB [1]; 24 hours and 48 hours post delivery,distinct staining of nuclei in surrounding neural and glial cells
same,extravasation of Hoechst H33342 (562 Da) from brain microvessels,"BBB [1]; 24 hours and 48 hours post delivery, listed as siRNA targeting claudin-5",extravasation of Hoechsct was observed; also recorded: crossed the BBB
same,extravasation of Hoechst H33342 (562 Da) from brain microvessels,BBB [1]; 72 hours or 1 week post-injection,not evident
same,"extravasation of FD-4 (4,400 Da) into brain parenchyma",BBB [1],No extravasation of FD-4
same,"extravasation of FD-4 (4,400 Da) into brain parenchyma",BBB [1]; [4],no extravasation was evident; also recorded: failed to do so
same,BBB permeability to EZ-Link Sulfo-NHS-Biotin (443 Da),BBB [2]; 1 week post-injection,no evidence for BBB compromise; also recorded: failed to deposit in the parenchyma; also recorded: did not allow for the passage; also recorded: no longer crossed the BBB
same,BBB permeability to EZ-Link Sulfo-NHS-Biotin (443 Da),"BBB [2]; 1 week post-injection, listed as siRNA targeting claudin-5",did not deposit in the parenchyma
same,BBB permeability to EZ-Link Sulfo-NHS-Biotin (443 Da),"BBB [2]; 24 hours post-injection, perfusion 5 minutes, listed as siRNA targeting claudin-5",diffuse and outside of the microvessels; also recorded: increase in permeability; also recorded: infiltration of the molecule into the parenchyma of the brain
same,BBB permeability to EZ-Link Sulfo-NHS-Biotin (443 Da),BBB [2]; 48 hours post-injection,abundant in the brain parenchyma
same,BBB permeability to EZ-Link Sulfo-NHS-Biotin (443 Da),"BBB [2]; 48 hours post-injection, listed as siRNA targeting claudin-5",very distinct; also recorded: detected in abundance
same,BBB permeability to EZ-Link Sulfo-NHS-Biotin (443 Da),BBB [2]; 72 hours post-delivery,permeability was still evident; also recorded: still evidenced
same,BBB permeability to EZ-Link Sulfo-NHS-Biotin (443 Da),"BBB [2]; 72 hours post-delivery, listed as siRNA targeting claudin-5",significant compromise in barrier function; also recorded: crossed the BBB
same,"blood flow / blood volume in major brain vessels and capillaries (MTT, CTT), MRI",[3],no significant differences in blood flow; also recorded: not observing any difference in blood flow or blood volume

# Reference: patent publication US9540649B2, “Method for opening tight junctions” (The Provost, Fellows and Scholars of the College of the …, priority 2007, dated 2017)
